{
  "source": "ChEMBL document CHEMBL6074623",
  "about": "“Carbamoylation at C-8 position of natural 3-arylcoumarin scaffold for the discovery of novel PARP-1 inhibitors with potent anticancer activity” (Eur J Med Chem, 2024)",
  "key": {"SUM149PT [1]": {"tested_on": "SUM149PT", "assay": "Induction of cell cycle arrest in human SUM149PT cells assessed as accumulation of cells at G0/G1 phase at 0.1 uM incubated for 24 hrs by propidium iodide/RNase A staining based flow cytometry (reference value: 72.8 %)", "type": "functional"}, "SUM149PT [2]": {"tested_on": "SUM149PT", "assay": "Induction of apoptosis in human SUM149PT cells assessed as upregulation of cleaved PARP expression incubated for 48 hrs by Western blotting analysis", "type": "functional, cell-based"}, "SUM149PT [3]": {"tested_on": "SUM149PT", "assay": "Induction of apoptosis in human SUM149PT cells assessed as viable cells at 2 uM incubated for 24 hrs by Annexin V-FITC/PI staining based flow cytometry (reference value: 93.7 %)", "type": "functional", "details": "read-out: Activity"}, "SUM149PT [4]": {"tested_on": "SUM149PT", "assay": "Induction of apoptosis in human SUM149PT cells assessed as viable cells at 0.5 uM incubated for 24 hrs by Annexin V-FITC/PI staining based flow cytometry (reference value: 93.7 %)", "type": "functional", "details": "read-out: Activity"}, "SUM149PT [5]": {"tested_on": "SUM149PT", "assay": "Induction of cell cycle arrest in human SUM149PT cells assessed as accumulation of cells at G0/G1 phase at 0.1 uM incubated for 48 hrs by propidium iodide/RNase A staining based flow cytometry (reference value: 69.2 %)", "type": "functional"}, "SUM149PT [6]": {"tested_on": "SUM149PT", "assay": "Induction of apoptosis in human SUM149PT cells assessed as early apoptotic cells at 0.5 uM incubated for 24 hrs by Annexin V-FITC/PI staining based flow cytometry (reference value: 2.59 %)", "type": "functional"}, "SUM149PT [7]": {"tested_on": "SUM149PT", "assay": "Induction of cell cycle arrest in human SUM149PT cells assessed as accumulation of cells at G0/G1 phase at 2 uM incubated for 48 hrs by propidium iodide/RNase A staining based flow cytometry (reference value: 69.2 %)", "type": "functional"}, "SUM149PT [8]": {"tested_on": "SUM149PT", "assay": "Induction of apoptosis in human SUM149PT cells assessed as necrotic cells at 0.1 uM incubated for 24 hrs by Annexin V-FITC/PI staining based flow cytometry (reference value: 1.27 %)", "type": "functional"}, "SUM149PT [9]": {"tested_on": "SUM149PT", "assay": "Induction of apoptosis in human SUM149PT cells assessed as viable cells at 0.5 uM incubated for 48 hrs by Annexin V-FITC/PI staining based flow cytometry (reference value: 96.1 %)", "type": "functional", "details": "read-out: Activity"}, "MDA-MB-436": {"tested_on": "MDA-MB-436", "assay": "Antiproliferative activity against human MDA-MB-436 cells assessed as inhibition of cell growth at 20 uM incubated for 48 hrs by MTT assay relative to control", "type": "functional"}, "SUM149PT [10]": {"tested_on": "SUM149PT", "assay": "Induction of cell cycle arrest in human SUM149PT cells assessed as accumulation of cells at S phase at 2 uM incubated for 24 hrs by propidium iodide/RNase A staining based flow cytometry (reference value: 16.4 %)", "type": "functional"}, "CAPAN-1": {"tested_on": "CAPAN-1", "assay": "Antiproliferative activity against human CAPAN-1 cells assessed as inhibition of cell growth incubated for 48 hrs by MTT assay", "type": "functional, cell-based", "details": "CAPAN-1, 48 h"}, "SUM149PT [11]": {"tested_on": "SUM149PT", "assay": "Induction of apoptosis in human SUM149PT cells assessed as late apoptotic cells at 0.5 uM incubated for 24 hrs by Annexin V-FITC/PI staining based flow cytometry (reference value: 2.45 %)", "type": "functional"}, "SUM149PT [12]": {"tested_on": "SUM149PT", "assay": "Induction of ROS in human SUM149PT cells assessed as increase in fluorescence intensity incubated for 48 hrs by DCFH-DA staining based confocal laser scanning microscopic analysis", "type": "functional, cell-based"}, "SUM149PT [13]": {"tested_on": "SUM149PT", "assay": "Induction of cell cycle arrest in human SUM149PT cells assessed as accumulation of cells at S phase at 0.5 uM incubated for 24 hrs by propidium iodide/RNase A staining based flow cytometry (reference value: 16.4 %)", "type": "functional"}, "SUM149PT [14]": {"tested_on": "SUM149PT", "assay": "Induction of apoptosis in human SUM149PT cells assessed as necrotic cells at 0.1 uM incubated for 48 hrs by Annexin V-FITC/PI staining based flow cytometry (reference value: 0.51 %)", "type": "functional"}, "Mitochondrial membrane [15]": {"tested_on": "Mitochondrial membrane", "assay": "Induction of mitochondrial membrane potential loss in human SUM149PT cells incubated for 48 hrs by JC-1 staining based confocal laser scanning microscopic analysis"}, "SUM149PT [16]": {"tested_on": "SUM149PT", "assay": "Induction of apoptosis in human SUM149PT cells assessed as late apoptotic cells at 0.5 uM incubated for 48 hrs by Annexin V-FITC/PI staining based flow cytometry (reference value: 1.13 %)", "type": "functional"}, "SUM149PT [17]": {"tested_on": "SUM149PT", "assay": "Induction of cell cycle arrest in human SUM149PT cells assessed as accumulation of cells at S phase at 0.1 uM incubated for 48 hrs by propidium iodide/RNase A staining based flow cytometry (reference value: 18.7 %)", "type": "functional"}, "[18]": {"target": "Poly [ADP-ribose] polymerase 2 (Homo sapiens, UniProt Q9UGN5)", "sequence (Q9UGN5 whole entry)": "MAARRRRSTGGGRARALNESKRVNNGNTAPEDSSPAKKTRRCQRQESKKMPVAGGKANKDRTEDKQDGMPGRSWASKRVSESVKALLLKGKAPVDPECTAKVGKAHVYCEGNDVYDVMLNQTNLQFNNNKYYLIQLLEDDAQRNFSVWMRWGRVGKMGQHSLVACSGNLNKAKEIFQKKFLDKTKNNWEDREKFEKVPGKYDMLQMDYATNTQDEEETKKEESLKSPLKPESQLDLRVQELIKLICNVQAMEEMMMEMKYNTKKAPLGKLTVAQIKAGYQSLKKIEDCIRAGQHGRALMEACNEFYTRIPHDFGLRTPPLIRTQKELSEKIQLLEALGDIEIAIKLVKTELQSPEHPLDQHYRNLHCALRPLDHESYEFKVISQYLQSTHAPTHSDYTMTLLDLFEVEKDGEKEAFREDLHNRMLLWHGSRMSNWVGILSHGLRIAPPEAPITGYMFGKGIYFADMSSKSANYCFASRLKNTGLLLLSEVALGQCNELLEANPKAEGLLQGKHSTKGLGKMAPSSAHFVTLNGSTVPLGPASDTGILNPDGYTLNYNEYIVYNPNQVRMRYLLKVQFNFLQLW", "assay": "Inhibition of PARP-2 in human SUM149PT cells incubated for 48 hrs by HRP-ELISA", "type": "cell-based"}, "SUM149PT [19]": {"tested_on": "SUM149PT", "assay": "Induction of apoptosis in human SUM149PT cells assessed as early apoptotic cells at 2 uM incubated for 24 hrs by Annexin V-FITC/PI staining based flow cytometry (reference value: 2.59 %)", "type": "functional"}, "SUM149PT [20]": {"tested_on": "SUM149PT", "assay": "Induction of apoptosis in human SUM149PT cells assessed as upregulation of caspase-3 expression incubated for 48 hrs by Western blotting analysis", "type": "functional, cell-based"}, "SUM149PT [21]": {"tested_on": "SUM149PT", "assay": "Induction of DNA double strand breaks in human SUM149PT cells assessed as increase in gamma-H2AX level in nucleus incubated for 48 hrs by immunofluorescence analysis", "type": "functional, cell-based"}, "SUM149PT [22]": {"tested_on": "SUM149PT", "assay": "Induction of cell cycle arrest in human SUM149PT cells assessed as accumulation of cells at G0/G1 phase at 0.5 uM incubated for 24 hrs by propidium iodide/RNase A staining based flow cytometry (reference value: 72.8 %)", "type": "functional"}, "SUM149PT [23]": {"tested_on": "SUM149PT", "assay": "Induction of cell cycle arrest in human SUM149PT cells assessed as accumulation of cells at S phase at 0.5 uM incubated for 48 hrs by propidium iodide/RNase A staining based flow cytometry (reference value: 18.7 %)", "type": "functional"}, "SUM149PT [24]": {"tested_on": "SUM149PT", "assay": "Induction of apoptosis in human SUM149PT cells assessed as upregulation of BAX expression incubated for 48 hrs by Western blotting analysis", "type": "functional, cell-based"}, "SUM149PT [25]": {"tested_on": "SUM149PT", "assay": "Induction of DNA double strand breaks in human SUM149PT cells assessed as increase in gamma-H2AX level incubated for 48 hrs by Western blotting analysis", "type": "functional, cell-based"}, "SUM149PT [26]": {"tested_on": "SUM149PT", "assay": "Induction of apoptosis in human SUM149PT cells assessed as downregulation of BCL-2 expression incubated for 48 hrs by Western blotting analysis", "type": "functional, cell-based"}, "SUM149PT [27]": {"tested_on": "SUM149PT", "assay": "Induction of apoptosis in human SUM149PT cells assessed as early apoptotic cells at 0.1 uM incubated for 24 hrs by Annexin V-FITC/PI staining based flow cytometry (reference value: 2.59 %)", "type": "functional"}, "HCC1937": {"tested_on": "HCC1937", "assay": "Antiproliferative activity against human HCC1937 cells assessed as inhibition of cell growth at 20 uM incubated for 48 hrs by MTT assay relative to control", "type": "functional"}, "Mitochondrial membrane [28]": {"tested_on": "Mitochondrial membrane", "assay": "Induction of mitochondrial membrane potential loss in human SUM149PT cells at 2 uM incubated for 48 hrs by JC-1 staining based confocal laser scanning microscopic analysis relative to niraparib"}, "SUM149PT [29]": {"tested_on": "SUM149PT", "assay": "Induction of cell cycle arrest in human SUM149PT cells assessed as accumulation of cells at G0/G1 phase at 2 uM incubated for 24 hrs by propidium iodide/RNase A staining based flow cytometry (reference value: 72.8 %)", "type": "functional"}, "SUM149PT [30]": {"tested_on": "SUM149PT", "assay": "Induction of apoptosis in human SUM149PT cells assessed as viable cells at 0.1 uM incubated for 24 hrs by Annexin V-FITC/PI staining based flow cytometry (reference value: 93.7 %)", "type": "functional", "details": "read-out: Activity"}},
  "note": "Active and inactive are the calls of the source. The calls are words filed in the database; no cut-off is given here.",
  "data": [
    {"smiles": "COc1cccc(-c2cc3cc(F)cc(C(N)=O)c3oc2=O)c1", "values": [
      {"measurement": "Activity", "setting": "SUM149PT [1]", "value": 59.5, "unit": "%"},
      {"measurement": "Activity", "setting": "SUM149PT [2]", "value": "Dose-dependent-effect"},
      {"measurement": "viability at 2 µM", "setting": "SUM149PT [3]", "value": 76.7, "unit": "%"},
      {"measurement": "viability at 0.5 µM", "setting": "SUM149PT [4]", "value": 86.6, "unit": "%"},
      {"measurement": "Activity", "setting": "SUM149PT [5]", "value": 25.9, "unit": "%"},
      {"measurement": "Activity", "setting": "SUM149PT [6]", "value": 5.61, "unit": "%"},
      {"measurement": "Activity", "setting": "SUM149PT [7]", "value": 16.9, "unit": "%"},
      {"measurement": "Activity", "setting": "SUM149PT [8]", "value": 1.86, "unit": "%"},
      {"measurement": "viability at 0.5 µM", "setting": "SUM149PT [9]", "value": 61.3, "unit": "%"},
      {"measurement": "inhibition at 20 µM", "setting": "MDA-MB-436", "value": "< 40", "unit": "%"},
      {"measurement": "Activity", "setting": "SUM149PT [10]", "value": 22.3, "unit": "%"},
      {"measurement": "IC50", "setting": "CAPAN-1", "value": 4260, "unit": "nM"},
      {"measurement": "Activity", "setting": "SUM149PT [11]", "value": 5.48, "unit": "%"},
      {"measurement": "Activity", "setting": "SUM149PT [12]", "value": "Dose-dependent-effect"},
      {"measurement": "Activity", "setting": "SUM149PT [13]", "value": 17.4, "unit": "%"},
      {"measurement": "Activity", "setting": "SUM149PT [14]", "value": 1.22, "unit": "%"},
      {"measurement": "Activity", "setting": "Mitochondrial membrane [15]", "value": "Dose-dependent-effect"},
      {"measurement": "Activity", "setting": "SUM149PT [16]", "value": 13.5, "unit": "%"},
      {"measurement": "Activity", "setting": "SUM149PT [17]", "value": 45.4, "unit": "%"},
      {"measurement": "IC50", "setting": "[18]", "value": 6.45, "unit": "nM"},
      {"measurement": "Activity", "setting": "SUM149PT [19]", "value": 9.8, "unit": "%"},
      {"measurement": "Activity", "setting": "SUM149PT [20]", "value": "Dose-dependent-effect"},
      {"measurement": "Activity", "setting": "SUM149PT [21]", "value": "Dose-dependent-effect"},
      {"measurement": "Activity", "setting": "SUM149PT [22]", "value": 64.3, "unit": "%"},
      {"measurement": "Activity", "setting": "SUM149PT [23]", "value": 25.3, "unit": "%"},
      {"measurement": "Activity", "setting": "SUM149PT [24]", "value": "Dose-dependent-effect"},
      {"measurement": "Activity", "setting": "SUM149PT [25]", "value": "Dose-dependent-effect"},
      {"measurement": "Activity", "setting": "SUM149PT [26]", "value": "Dose-dependent-effect"},
      {"measurement": "Activity", "setting": "SUM149PT [27]", "value": 3.96, "unit": "%"},
      {"measurement": "inhibition at 20 µM", "setting": "HCC1937", "value": "> 60", "unit": "%"},
      {"measurement": "Activity", "setting": "Mitochondrial membrane [28]", "value": "Active"},
      {"measurement": "Activity", "setting": "SUM149PT [29]", "value": 39.9, "unit": "%"},
      {"measurement": "viability at 0.1 µM", "setting": "SUM149PT [30]", "value": 91.5, "unit": "%"}
    ]}
  ]
}
